From the supplement of paper PMC10307832 come the findings set out here.

Holding throughout (test): relative viability (nuclei count vs DMSO), 5 days (fraction); higher = more cells survive
Compound in the test “Ruxolitinib + Foretinib”: N#CC[C@H](C1CCCC1)n1cc(-c2ncnc3[nH]ccc23)cn1 [Ruxolitinib] + COc1cc2c(Oc3ccc(NC(=O)C4(C(=O)Nc5ccc(F)cc5)CC4)cc3F)ccnc2cc1OCCCN1CCOCC1 [Foretinib] (partner 0.25 µM)
Summed up:
(§1)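 Five library-drug doses in √10 steps were combined with a fixed anchor-drug dose, or a single drug was given alone, by pin tool to lung cancer cell lines in 1536-well plates the day after seeding. Nuclei were stained and counted after 5 days. Relative viability is the nuclei count in treated wells over that in vehicle wells, taken as the median of duplicate plates.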

Compound in test [1]: N#CC[C@H](C1CCCC1)n1cc(-c2ncnc3[nH]ccc23)cn1 [Ruxolitinib] + CC(=O)c1c(C)c2cnc(Nc3ccc(N4CCNCC4)cn3)nc2n(C2CCCC2)c1=O [Palbociclib] (partner 0.5 µM)
Summed up:
as §1

Compound in the test “Vismodegib + OSI-027”: CS(=O)(=O)c1ccc(C(=O)Nc2ccc(Cl)c(-c3ccccn3)c2)c(Cl)c1 [Vismodegib] + COc1cccc2cc(-c3nc([C@H]4CC[C@H](C(=O)O)CC4)n4ncnc(N)c34)[nH]c12 [OSI-027] (partner 0.5 µM)
Summed up: as §1

Compound in the test “Ruxolitinib + Pictilisib”: N#CC[C@H](C1CCCC1)n1cc(-c2ncnc3[nH]ccc23)cn1 [Ruxolitinib] + CS(=O)(=O)N1CCN(Cc2cc3nc(-c4cccc5[nH]ncc45)nc(N4CCOCC4)c3s2)CC1 [Pictilisib] (partner 1 µM)
Summed up:
as §1

With COR-L 105, the relative viability with Ruxolitinib + Foretinib (first compound 0.08 µM) came out at 0.927; in the test with Ruxolitinib + Foretinib (first compound 0.253 µM) it was 1.17; with Ruxolitinib + Foretinib (first compound 0.8 µM) it was 0.994; with Ruxolitinib + Foretinib (first compound 2.53 µM), 0.718; with Ruxolitinib + Foretinib (first compound 8 µM) it was 0.853; in test [1] (first compound 0.253 µM), 0.386. Moreover, the relative viability in test [1] (first compound 0.8 µM) worked out at 0.387; in test [1] (first compound 2.53 µM) it was 0.392; in test [1] (first compound 8 µM) it was 0.365; with Vismodegib + OSI-027 (first compound 0.08 µM) it was 0.683; with Vismodegib + OSI-027 (first compound 0.253 µM), 0.63; with Vismodegib + OSI-027 (first compound 0.8 µM), 0.771. Further, the relative viability in the test with Vismodegib + OSI-027 (first compound 2.53 µM) is 0.739; with Vismodegib + OSI-027 (first compound 8 µM), 0.658; in the test with Ruxolitinib + Pictilisib (first compound 0.08 µM) it was 0.379; with Ruxolitinib + Pictilisib (first compound 0.253 µM), 0.389; in the test with Ruxolitinib + Pictilisib (first compound 0.8 µM), 0.407; in the test with Ruxolitinib + Pictilisib (first compound 2.53 µM), 0.344. Also, the relative viability with Ruxolitinib + Pictilisib (first compound 8 µM) came to 0.334.
For ChaGo-K-1, the relative viability worked out at 0.956 with Ruxolitinib + Foretinib (first compound 0.08 µM); 0.934 with Ruxolitinib + Foretinib (first compound 0.253 µM); 0.898 with Ruxolitinib + Foretinib (first compound 0.8 µM); 0.772 with Ruxolitinib + Foretinib (first compound 2.53 µM); 0.823 with Ruxolitinib + Foretinib (first compound 8 µM); 0.909 in test [1] (first compound 0.08 µM). Also, the relative viability in test [1] (first compound 0.253 µM) was determined as 0.924; in test [1] (first compound 0.8 µM) it was 0.906; in test [1] (first compound 2.53 µM), 0.8; in test [1] (first compound 8 µM) it was 0.789; with Vismodegib + OSI-027 (first compound 0.08 µM) it was 0.663; with Vismodegib + OSI-027 (first compound 0.253 µM), 0.546. The relative viability in the test with Vismodegib + OSI-027 (first compound 0.8 µM) was found to be 0.554; in the test with Vismodegib + OSI-027 (first compound 2.53 µM), 0.619; with Vismodegib + OSI-027 (first compound 8 µM) it was 0.516; in the test with Ruxolitinib + Pictilisib (first compound 0.253 µM), 0.555; with Ruxolitinib + Pictilisib (first compound 0.8 µM), 0.668; with Ruxolitinib + Pictilisib (first compound 2.53 µM), 0.776. In addition, the relative viability with Ruxolitinib + Pictilisib (first compound 8 µM) was 0.727.
On to EKVX, for which the relative viability amounted to 0.234 with Ruxolitinib + Foretinib (first compound 0.08 µM); 0.698 in the test with Ruxolitinib + Foretinib (first compound 0.253 µM); 0.768 in the test with Ruxolitinib + Foretinib (first compound 0.8 µM); 0.795 with Ruxolitinib + Foretinib (first compound 2.53 µM); 0.311 in the test with Ruxolitinib + Foretinib (first compound 8 µM); 0.358 in test [1] (first compound 0.253 µM). Besides, the relative viability in test [1] (first compound 0.8 µM) stood at 0.393; in test [1] (first compound 2.53 µM), 0.34; in test [1] (first compound 8 µM), 0.333; with Vismodegib + OSI-027 (first compound 0.08 µM), 0.677; in the test with Vismodegib + OSI-027 (first compound 0.253 µM), 0.67; with Vismodegib + OSI-027 (first compound 0.8 µM), 0.676. For the same cell line, the relative viability with Vismodegib + OSI-027 (first compound 2.53 µM) stood at 0.715; with Vismodegib + OSI-027 (first compound 8 µM), 0.731; with Ruxolitinib + Pictilisib (first compound 0.08 µM), 0.323; in the test with Ruxolitinib + Pictilisib (first compound 0.253 µM), 0.385; with Ruxolitinib + Pictilisib (first compound 0.8 µM), 0.451; with Ruxolitinib + Pictilisib (first compound 2.53 µM), 0.44. In addition, in the test with Ruxolitinib + Pictilisib (first compound 8 µM), the relative viability stood at 0.521.
As to EMC-BAC-2, the relative viability with Ruxolitinib + Foretinib (first compound 0.08 µM) was determined as 1.06; with Ruxolitinib + Foretinib (first compound 0.253 µM), 0.951; with Ruxolitinib + Foretinib (first compound 0.8 µM), 1.03; with Ruxolitinib + Foretinib (first compound 2.53 µM), 0.819; in the test with Ruxolitinib + Foretinib (first compound 8 µM), 0.824; in test [1] (first compound 0.08 µM) it was 0.518. The relative viability in test [1] (first compound 0.253 µM) is 0.507; in test [1] (first compound 0.8 µM) it was 0.58; in test [1] (first compound 2.53 µM) it was 0.47; in test [1] (first compound 8 µM) it was 0.418; with Vismodegib + OSI-027 (first compound 0.08 µM) it was 0.423; in the test with Vismodegib + OSI-027 (first compound 0.253 µM), 0.378. For the same cell line, the relative viability with Vismodegib + OSI-027 (first compound 0.8 µM) stood at 0.419; with Vismodegib + OSI-027 (first compound 2.53 µM), 0.394; with Vismodegib + OSI-027 (first compound 8 µM), 0.395; in the test with Ruxolitinib + Pictilisib (first compound 0.08 µM) it was 0.534; with Ruxolitinib + Pictilisib (first compound 0.253 µM) it was 0.495; with Ruxolitinib + Pictilisib (first compound 0.8 µM), 0.57. Further, the relative viability with Ruxolitinib + Pictilisib (first compound 2.53 µM) came out at 0.495; with Ruxolitinib + Pictilisib (first compound 8 µM) it was 0.384.
For the cell line EPLC-272H, the relative viability with Ruxolitinib + Foretinib (first compound 0.08 µM) came to 0.645; with Ruxolitinib + Foretinib (first compound 0.253 µM), 0.635; with Ruxolitinib + Foretinib (first compound 0.8 µM) it was 0.79; with Ruxolitinib + Foretinib (first compound 2.53 µM), 0.573; with Ruxolitinib + Foretinib (first compound 8 µM) it was 0.472; in test [1] (first compound 0.08 µM), 0.285. In addition, the relative viability was 0.331 in test [1] (first compound 0.253 µM); 0.38 in test [1] (first compound 0.8 µM); 0.365 in test [1] (first compound 2.53 µM); 0.412 in test [1] (first compound 8 µM); 0.291 in the test with Vismodegib + OSI-027 (first compound 0.08 µM); 0.273 in the test with Vismodegib + OSI-027 (first compound 0.253 µM). The relative viability amounted to 0.279 in the test with Vismodegib + OSI-027 (first compound 0.8 µM); 0.278 in the test with Vismodegib + OSI-027 (first compound 2.53 µM); 0.275 in the test with Vismodegib + OSI-027 (first compound 8 µM); 0.141 with Ruxolitinib + Pictilisib (first compound 0.08 µM); 0.36 with Ruxolitinib + Pictilisib (first compound 0.253 µM); 0.336 with Ruxolitinib + Pictilisib (first compound 0.8 µM). Besides, the relative viability in the test with Ruxolitinib + Pictilisib (first compound 2.53 µM) worked out at 0.281; in the test with Ruxolitinib + Pictilisib (first compound 8 µM), 0.268.
As for H3255, the relative viability in the test with Ruxolitinib + Foretinib (first compound 0.08 µM) stood at 0.747; with Ruxolitinib + Foretinib (first compound 0.253 µM), 0.91; with Ruxolitinib + Foretinib (first compound 0.8 µM), 0.968; in the test with Ruxolitinib + Foretinib (first compound 2.53 µM), 0.95; with Ruxolitinib + Foretinib (first compound 8 µM) it was 0.836; in test [1] (first compound 0.08 µM) it was 0.307. Also, the relative viability in test [1] (first compound 0.253 µM) was determined as 0.297; in test [1] (first compound 0.8 µM), 0.315; in test [1] (first compound 2.53 µM), 0.266; in test [1] (first compound 8 µM) it was 0.263; with Vismodegib + OSI-027 (first compound 0.08 µM) it was 0.58; with Vismodegib + OSI-027 (first compound 0.253 µM) it was 0.634. Besides, the relative viability stood at 0.701 with Vismodegib + OSI-027 (first compound 0.8 µM); 0.579 with Vismodegib + OSI-027 (first compound 2.53 µM); 0.522 in the test with Vismodegib + OSI-027 (first compound 8 µM); 0.206 with Ruxolitinib + Pictilisib (first compound 0.08 µM); 0.435 with Ruxolitinib + Pictilisib (first compound 0.253 µM); 0.516 in the test with Ruxolitinib + Pictilisib (first compound 0.8 µM). Moreover, the results for the relative viability in the test with Ruxolitinib + Pictilisib (first compound 2.53 µM) and in the test with Ruxolitinib + Pictilisib (first compound 8 µM) were 0.427 and 0.48, respectively.
